Results as given in patent publication US4246262A, “Derivatives of amidinopenicillanic acid” (Leo Pharmaceutical Products, Ltd. A/S, priority 1977, dated 1981).
≈ marks a conversion by molar mass, not a printed value. Counter-ions that a name gives are not always drawn.

Columns and labels:
Assay in all cases: antibacterial activity, IC50 (concentration required for 50 percent inhibition)
Type in all cases: cell-based
[1] = tested on: Pseudomonas aeruginosa PS 18s; details: PS18S
Excerpt: (§1) In the table below, the antibacterial activity of the compound of Example 2 is compared to that of the known compounds Ampicillin and Mecillinam.
(§2) In the table IC50 means the concentration required for 50 percent inhibition.

[2] = tested on: Enterobacter cloacae P 99; details: P99
Excerpt: as §1, §2

E.coli HA 2 Leo strain = details: Escherichia coli, HA2LEOSTRAIN
Excerpt: as §1, §2

[3] = tested on: Salmonella typhimurium NCTC 5710; details: Salmonella enterica
Excerpt: as §1, §2

E.coli W3110 (RTEM) = details: Escherichia coli
Excerpt: as §1, §2

[4] = tested on: Pseudomonas aeruginosa BA 2 Leo strain; details: BA2LEOSTRAIN
Excerpt: as §1, §2

[5] = tested on: Klebsiella pneumoniae ATCC 10273; details: ATCC10273
Excerpt: as §1, §2

[6] = tested on: Salmonella cholerasuis NCTC 5735; details: NCTC5735
Excerpt: as §1, §2

Row | SMILES | IC50 [1] [mg/L] | IC50 [2] [mg/L] | IC50 (E.coli HA 2 Leo strain) [mg/L] | IC50 [3] [mg/L] | IC50 (E.coli W3110 (RTEM)) [mg/L] | IC50 [4] [mg/L] | IC50 [5] [mg/L] | IC50 [6] [mg/L]
1 | CC1(C)S[C@@H]2[C@H](NC(=O)[C@H](N)c3ccccc3)C(=O)N2[C@H]1C(=O)O [Ampicillin] | 50 (≈ 143 µM) | > 100 | 1.3 (≈ 3.72 µM) | 0.4 (≈ 1.14 µM) | > 100 | > 100 | 79 (≈ 226 µM) | 0.25 (≈ 0.715 µM)
2 | CC1(C)S[C@@H]2[C@H](N=CN3CCC(CSCCN)CC3)C(=O)N2[C@H]1C(=O)O [Example 2, 6-[4'-(2"-Aminoethylthiomethyl)-piperidino-methyleneamino]-penicillanic acid hydrochloride] | 40 | 0.063 | 0.05 | 0.05 | 1.6 | 50 | 0.32 | 0.05
3 | CC1(C)S[C@@H]2[C@H](/N=C/N3CCCCCC3)C(=O)N2[C@H]1C(=O)O [Mecillinam] | > 100 | 0.1 (≈ 0.307 µM) | 0.016 (≈ 0.0492 µM) | 0.05 (≈ 0.154 µM) | 2 (≈ 6.15 µM) | > 100 | ~1 (≈ 3.07 µM) | 0.05 (≈ 0.154 µM)
